Legend:
MDA-MB-231 (breast) = test: Cell viability, crystal violet assay, MDA-MB-231; assay type: cell-based, human; settings: for IC50: MDA-MB-231 (breast), 4,000 cells/well, treated 72 h, mean ± SD (n = 3)
Description: The plates were washed with water and dried again.

A2780 (ovarian) = settings: A2780 (ovarian), 4,000 cells/well, treated 72 h, mean ± SD (n = 3)
Description: (§1) All cell lines (OVCAR8, A2780, H460, and MDA-MB-231) were cultivated in RPMI or DMEM supplemented with 10% FBS, 1% penicillin/streptomycin, and 1% amphotericin. All cells were grown at 310K in a humidified atmosphere containing 5% CO2.
(§2) Various established human ovarian, lung, and breast cancer cell lines were seeded in 96-well plates (4000 cells/well) and were incubated with RPMI 1640 or DMEM (100 μL) supplemented with 10% FBS, 1% penicillin/streptomycin, and 1% amphotericin for 24 h and at 37° C. They were then treated with AuPhos compounds at increasing concentrations for 72 h from stock solutions following serial dilutions, in which AuPhos stock solutions were prepared in DMSO/media mixture (% v/v=20:80). Thereafter, cellular viability was assessed via the established crystal violet colorimetric assay. In brief, cells were fixed with 50 μL of a 1% glutaraldehyde solution and placed in an incubator (37° C., 5% CO2) for 1 hour. The plates were washed with water by running them under a gentle flow of tap water. The plates were air-dried, and crystal violet reagent was added to each well and allowed to incubate at room temperature for 20 min. The plates were washed with water and dried again. Methanol (200 μL/well) was added to each well, and the measurements of absorbance were subsequently performed using a Biotek Synergy H1 Plate Reader at 570 nm (peak absorbance).

H460 (lung) = settings: H460 (lung), 4,000 cells/well, treated 72 h, mean ± SD (n = 3)
Description: as §1, §2

OVCAR8 (ovarian) = settings: OVCAR8 (ovarian), 4,000 cells/well, treated 72 h, mean ± SD (n = 3)
Description: as §1, §2

4T1 tumor = test: In vivo comparative experiment of AuPhos-89 and cisplatin, 4T1, IP; parameters: species or system BALB/c mice
Description: Mice were implanted with 2,000,000 4T1 cells subcutaneously on their flanks. […] The control group was injected with a PBS solution containing 1.5% DMSO and 12% Kolliphor. Injection and tumor-size/body-weight measurement was performed three days a week.
Mice organs (heart, lung, liver, kidney, spleen, and tumor) were fixed in freshly prepared paraformaldehyde (4% in PBS), the fixation time was 24 hours. And those processed for paraffin sectioning. The organs sections of 5 μm were stained with H&E staining and used for histological examination of the organs and tumor. A total of 5 sections per tissues (spanning the full depth of the organ) were examined and photographed using a Nikon Eclipse 55i microscope. […]

MDA-MB-231 cells = settings: 2 mM for 3 h, FACS
Description: MDA-MB-231 cells were seeded at a density of 5×10^5 cells/well in a 6-well clear bottom plate with a final media volume of 2 mL. The cells were allowed to adhere overnight at 37° C. A stock of AuPhos-89 was prepared fresh in DMSO/DMEM (% v/v=20:80) and added to the desired well at a concentration of 1 μM with a final volume of 2.5 mL and incubated for 15 h at 37° C. A stock of H2O2 was prepared in PBS and the cells treated at a final concentration of 2 mM for 3 hours and used as positive control. When ready for analysis, medium was removed and the wells washed with 5 mL of PBS. The cells were trypsinized (1 mL), 5 mL of DMEM were added to each well, and total volume collected and centrifuged to pellet the cells. The cells were resuspended in 2 mL of fresh media, counted, and reconstituted to a concentration of 1×10^5 cells/mL. The cells were centrifuged again, and the pellet suspended in 500 μL of Annexin binding buffer. To each sample was added 5 μl of Annexin V-FITC and 5 μl PI and incubated in the dark at room temperature for 5 minutes. The samples were then subjected to FACS analysis.

In the case of `c1ccc(P(c2ccccc2)c2ccccc2P(c2ccccc2)c2ccccc2)cc1` [1,2-Bis(diphenylphosphino)benzene, reference compound], the IC50 (MDA-MB-231 (breast); Homo sapiens) is reported as 1370 ± 450 nM and the “less cytotoxicity compared with the AuPhos compounds (Table 1)” value (MDA-MB-231 (breast); MDA-MB-231) is reported as ~6 times.

`Cl.[Cl][Au-]1([c]2ccccc2Nc2ccccn2)[P+](c2ccccc2)(c2ccccc2)c2ccccc2[P+]1(c1ccccc1)c1ccccc1` [AuPhos-82, (2-anilinopyridine)[1,2-Bis(diphenylphosphino)benzene]gold(III) Dichloride] showed an IC50 (MDA-MB-231 (breast)) of 220 ± 200 nM, an IC50 (A2780 (ovarian)) of 340 ± 40 nM and an IC50 (H460 (lung)) of 1040 ± 170 nM. The IC50 (OVCAR8 (ovarian)) was 850 ± 60 nM.

Compound `Cl.[Cl][Au-]1([c]2ccccc2Cc2ccccn2)[P+](c2ccccc2)(c2ccccc2)c2ccccc2[P+]1(c1ccccc1)c1ccccc1` [AuPhos-84, (2-benzylpyridine)[1,2-Bis(diphenylphosphino)benzene]gold(III) Dichloride] has an IC50 (MDA-MB-231 (breast)) of 240 ± 160 nM, an IC50 (A2780 (ovarian)) of 250 ± 60 nM and an IC50 (H460 (lung)) of 760 ± 150 nM. The IC50 (OVCAR8 (ovarian)) was 1240 ± 140 nM.

`Cl.O=C(c1ccccn1)c1cccc[c]1[Au-]1([Cl])[P+](c2ccccc2)(c2ccccc2)c2ccccc2[P+]1(c1ccccc1)c1ccccc1` [AuPhos-85, (2-benzoylpyridine)[1,2-Bis(diphenylphosphino)benzene]gold(I) Dichloride] showed an IC50 (MDA-MB-231 (breast)) of 260 ± 60 nM, an IC50 (A2780 (ovarian)) of 150 ± 30 nM and an IC50 (H460 (lung)) of 340 ± 70 nM. It also gave an IC50 (OVCAR8 (ovarian)) of 640 ± 110 nM.

For `Cl.[Cl][Au-]1([c]2cccc3ccc4cccnc4c23)[P+](c2ccccc2)(c2ccccc2)c2ccccc2[P+]1(c1ccccc1)c1ccccc1` [AuPhos-86, (benzo[h]quinoline)[1,2-Bis(diphenylphosphino)benzene]gold(III) Dichloride], the IC50 (MDA-MB-231 (breast)) was 290 ± 40 nM, the IC50 (A2780 (ovarian)) was 330 ± 40 nM and the IC50 (H460 (lung)) was 340 ± 70 nM. For the same compound, the IC50 (OVCAR8 (ovarian)) was 820 ± 440 nM.

`Cc1ccc(-c2ccccn2)[c]([Au-]2([Cl])[P+](c3ccccc3)(c3ccccc3)c3ccccc3[P+]2(c2ccccc2)c2ccccc2)c1.Cl` [AuPhos-87, (2-(p-tolyl)pyridine)[1,2-Bis(diphenylphosphino)benzene]gold(III) Dichloride] was tested, and the IC50 (MDA-MB-231 (breast)) was 450 ± 190 nM, the IC50 (A2780 (ovarian)) was 180 ± 40 nM and the IC50 (H460 (lung)) was 710 ± 90 nM. The IC50 (OVCAR8 (ovarian)) was 820 ± 760 nM.

For `Cl.O=Cc1ccc(-c2ccccn2)[c]([Au-]2([Cl])[P+](c3ccccc3)(c3ccccc3)c3ccccc3[P+]2(c2ccccc2)c2ccccc2)c1` [AuPhos-88, (4-(2-pyridyl)benzaldehyde)[1,2-Bis(diphenylphosphino)benzene]gold(III) Dichloride], the IC50 (MDA-MB-231 (breast)) was 370 ± 210 nM, the IC50 (A2780 (ovarian)) was 270 ± 20 nM and the IC50 (H460 (lung)) was 400 ± 30 nM. For the same compound, the IC50 (OVCAR8 (ovarian)) was 850 ± 70 nM.

With `N.N.[Cl][Pt][Cl]` [cisplatin, reference compound] the “tumor inhibition compared with the control group” value (4T1 tumor; AuPhos-89 10 mg kg−1 IP, cisplatin 3 mg kg−1 IP) was “significant tumor inhibition” and the tumor volume (4T1 tumor; six treatments, thrice a week, IP, AuPhos-89 10 mg kg−1, cisplatin 3 mg/kg, versus vehicle control) was “comparable results to AuPhos-89 treatment”.

`OO` [hydrogen peroxide, reference compound] was tested, and the “apoptosis, positive control” value (MDA-MB-231 cells) was “significant apoptosis”.

Work on “(2-phenoxypyridine)[1,2-Bis(diphenylphosphino) benzene]gold(III) Dichloride [AuPhos-83]” yielded an IC50 (MDA-MB-231 (breast)) of 220 ± 70 nM, an IC50 (A2780 (ovarian)) of 220 ± 10 nM and an IC50 (H460 (lung)) of 270 ± 60 nM. For the same compound, the IC50 (OVCAR8 (ovarian)) was 890 ± 140 nM.

Reference: patent US20230357292A1, “MULTI-COORDINATE GOLD-PHOSPHINE COMPOUNDS AND METHOD OF USE” (University of Kentucky Research Foundation, priority 2020, published 2023)
